“And” between values parts separate entries of the source, which are not always exact repeats. Equal entries are not always repeated.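 1) Cells in 96-well plates. 2) Compound, 48 h, 5 concentrations. 3) Linear interpolation between surrounding doses. 4) Unreached endpoint = highest concentration. GI50 marks 50% less growth. TGI is the concentration that stops growth completely.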
What was measured:
Assay in all cases: NCI tumour cell line growth inhibition, 48 h
RPMI-8226 leukemia = tested on: RPMI-8226 leukemia
TK-10 renal = tested on: TK-10 renal
HL-60(TB) leukemia = tested on: HL-60(TB) leukemia
SF-539 CNS = tested on: SF-539 CNS
HT29 colon = tested on: HT29 colon
EKVX NSCLC = tested on: EKVX NSCLC
SNB-19 CNS = tested on: SNB-19 CNS
NCI-H23 lung = tested on: NCI-H23 lung
SK-MEL-5 melanoma = tested on: SK-MEL-5 melanoma
A498 renal = tested on: A498 renal

Compound	TGI (RPMI-8226 leukemia)	TGI (TK-10 renal)	TGI (HL-60(TB) leukemia)	TGI (SF-539 CNS)	TGI (HT29 colon)	TGI (EKVX NSCLC)	TGI (SNB-19 CNS)	TGI (NCI-H23 lung)	TGI (SK-MEL-5 melanoma)	TGI (A498 renal)	GI50 (RPMI-8226 leukemia)	GI50 (TK-10 renal)	GI50 (HL-60(TB) leukemia)	GI50 (SF-539 CNS)	GI50 (HT29 colon)	GI50 (EKVX NSCLC)	GI50 (SNB-19 CNS)	GI50 (NCI-H23 lung)	GI50 (SK-MEL-5 melanoma)	GI50 (A498 renal)
O=C1c2cccc3cc([N+](=O)[O-])cc(c23)C(=O)N1NC1=NCCN1	> 100 µM	> 100 µM	> 100 µM	> 100 µM	> 100 µM	> 100 µM	> 100 µM	> 100 µM	> 100 µM	> 100 µM										
CC(C)N(C(=O)C12C3C4C5C3C1(C(=O)N(C(C)C)C(C)C)C5(C#N)C42)C(C)C (configuration not stated)	66.2 µM	> 100 µM	39.4 µM	> 100 µM	> 100 µM	> 100 µM	> 100 µM	> 100 µM	> 100 µM	> 100 µM										
O=C(/C=C/c1ccccc1)c1c[nH]c2ccccc2c1=O	7.62 µM	5.37 µM	10.6 µM	8.81 µM	10.6 µM	20.1 µM	20.5 µM	15.2 µM	17 µM	10.3 µM	2.23 µM	2.08 µM	2.81 µM	2.55 µM	3.15 µM	3.95 µM	4.68 µM	3.17 µM	4.8 µM	2.3 µM
Cc1csc(/C=N/NC(=O)c2nnn(-c3ccnc4c(C(F)(F)F)cccc34)c2C)c1	> 100 µM	> 100 µM	> 100 µM	> 100 µM	82.5 µM	> 100 µM	> 100 µM	> 100 µM	> 100 µM	> 100 µM	33.7 µM	41.8 µM	50.3 µM	> 100 µM	10.1 µM	> 100 µM	97.3 µM	48.1 µM	27.2 µM	83.1 µM
Nc1ncnc2c1ncn2C1OC(CSC(F)(F)F)C(O)C1O (configuration not stated)	> 100 µM	> 100 µM	> 100 µM	> 100 µM	> 100 µM	> 100 µM		> 100 µM	> 100 µM	> 100 µM										
CC1(C)OC(=O)[C@@](C)([C@H](O)c2ccccc2)O1		> 100 µM	> 100 µM	> 100 µM	> 100 µM	> 100 µM	> 100 µM	> 100 µM	> 100 µM	> 100 µM										
COc1cccc(C(=O)Nc2ccc(CN3CCc4nc5cc(OC)c(OC)cc5cc43)cc2)c1	24.3 µM	21.4 µM	27.7 µM	23.8 µM	7.05 µM		> 100 µM	25.4 µM	10.9 µM	9.07 µM	3.89 µM	3.78 µM	4.92 µM	5.51 µM	2.59 µM		8.12 µM	4.5 µM	2.97 µM	1.67 µM
C=C[C@@]1(C)CCC2(O)C(CCC3C2(C)CCC[C@@]3(C)COC(=O)CC(=O)OC)C1 (some centres not stated)	47 µM	73.3 µM	52.6 µM	36.1 µM	33.2 µM		> 100 µM	37.4 µM	32.1 µM											
CC1=CCC2(C#N)CCC1C2O (configuration not stated)	> 100 µM	> 100 µM	> 100 µM	> 100 µM	> 100 µM	> 100 µM	> 100 µM		> 100 µM	> 100 µM										
O=C(CC(=O)C(=O)Nc1ccccc1)CC(c1ccccc1)c1c(O)c2ccccc2oc1=O (configuration not stated)		> 100 µM	> 100 µM	> 100 µM	> 100 µM	> 100 µM	> 100 µM		> 100 µM	> 100 µM										
Cc1onc(-c2c(F)cccc2Cl)c1-c1ncc(-c2ccc(Cl)cc2)o1	44.9 µM	> 100 µM	> 100 µM	> 100 µM	> 100 µM		> 100 µM	> 100 µM	8.33 µM	> 100 µM	2.77 µM	8.33 µM	4.02 µM	5.07 µM	3.89 µM		6.59 µM	5.04 µM	2.55 µM	5.09 µM
Cc1cc2cccnc2c2ncccc12	9.07 µM	23.9 µM		10.8 µM	16 µM	16 µM	> 100 µM	87.6 µM	10.7 µM	7.3 µM	2.43 µM	0.713 µM		1.83 µM	1.69 µM	0.665 µM	2.27 µM	3.11 µM	1.3 µM	1.59 µM
C/C=C(\C)c1cc(=O)c2c(C)cc3c(c2o1)C(=O)c1c(O)c(C2CC(C)(N(C)C)C(O)C(C)O2)cc(C2CC(N(C)C)C(O)C(C)O2)c1C3=O (configuration not stated)		0.729 µM	6.82 µM		1.72 µM and 6.46 µM	1.59 µM	7.54 µM and 28.8 µM	1.03 µM and 9.29 µM		0.453 µM							0.404 µM and 2.6 µM			
COc1ccc(C2=Nc3ccccc3SC(C)C2)cc1 (configuration not stated)	60.2 µM	> 100 µM	> 100 µM	> 100 µM	> 100 µM	> 100 µM	> 100 µM	> 100 µM		> 100 µM										
O=C(/C=C1\C(=O)N(Cc2ccc([N+](=O)[O-])cc2)c2ccccc21)c1ccc(OCCN2CCCCC2)cc1	4.13 µM	2.74 µM		2.89 µM	2.88 µM	3.9 µM	2.92 µM	2.97 µM	3.04 µM	18 µM	1.35 µM	1.43 µM		1.53 µM	1.4 µM	1.56 µM	1.56 µM	1.47 µM	1.67 µM	4.09 µM
CN(CCC#N)c1ccc(/C=C(\C#N)c2cccc(C(F)(F)F)c2)cc1	> 100 µM	> 100 µM	> 100 µM	> 100 µM	11.3 µM		> 100 µM	> 100 µM	30.5 µM	8.89 µM	3.63 µM	3.12 µM	3 µM	4.31 µM	2.58 µM		17 µM	3.86 µM	3.23 µM	1.44 µM
CNC(=S)N/N=C1\CC(c2ccccc2)Oc2ccccc21 (configuration not stated)		> 100 µM		> 100 µM	> 100 µM	> 100 µM	> 100 µM	> 100 µM	> 100 µM											
